Results: ChEMBL document CHEMBL1126387, “Use of transferred nuclear overhauser effects to determine the conformation of 1-(3,4-dichlorophenyl)-2-aminopropane when bound to the active site of phenylethanolamine N-methyltransferace (PNMT)” (Bioorg Med Chem Lett, 1992)

Biological target: T1, Phenylethanolamine N-methyltransferase (Bos taurus, UniProt P10938)
T1 sequence (P10938 whole entry): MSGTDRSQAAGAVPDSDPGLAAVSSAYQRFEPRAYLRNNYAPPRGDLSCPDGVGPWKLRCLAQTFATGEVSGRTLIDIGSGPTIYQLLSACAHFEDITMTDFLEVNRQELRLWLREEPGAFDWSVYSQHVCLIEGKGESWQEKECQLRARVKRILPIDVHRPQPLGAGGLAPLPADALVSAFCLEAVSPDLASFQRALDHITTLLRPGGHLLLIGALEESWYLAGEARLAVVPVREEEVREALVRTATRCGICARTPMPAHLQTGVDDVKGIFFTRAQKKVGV
Assay: Inhibitory activity against bovine adrenal phenylethanolamine N-methyltransferase(PNMT)

CC(N)Cc1ccc(Cl)c(Cl)c1 (stereo unspecified)
Ki: 6.7 µM
